# Measured values published in ChEMBL document CHEMBL2440112, “Structure-activity relationships of the aromatic site in novel anticonvulsant pyrrolo[1,2-a]pyrazine derivatives” (Bioorg Med Chem Lett, 2013).
# Calls of active or inactive are those of the source. The rule behind the calls is not given here.
# How the values were obtained:
# Mus musculus [1] = test: Anticonvulsant activity in albino mouse assessed as protection against maximal electroshock-induced seizures at 100 mg/kg, ip after 4 hrs; assay type: functional, organism-based; design: dose 100 mg/kg
# Rattus norvegicus [2] = test: Anticonvulsant activity in albino Sprague-Dawley rat assessed as protection against maximal electroshock-induced seizures at 30 mg/kg, ip after 0.25 hrs; assay type: functional, organism-based; design: dose 30 mg/kg
# Mus musculus [3] = test: Anticonvulsant activity in albino mouse assessed as protection against subcutaneous metrazole-induced seizures at 100 mg/kg, ip after 4 hrs; assay type: functional, organism-based; design: dose 100 mg/kg
# Rattus norvegicus [4] = test: Anticonvulsant activity in albino Sprague-Dawley rat assessed as protection against maximal electroshock-induced seizures at 30 mg/kg, ip after 2 hrs; assay type: functional, organism-based; design: dose 30 mg/kg
# Mus musculus [5] = test: Neurotoxicity in albino mouse assessed as minimal motor impairment at 100 mg/kg, ip after 0.5 hrs by rotorod test; assay type: toxicity, organism-based; design: dose 100 mg/kg, route intraperitoneal; settings: in vivo
# Rattus norvegicus [6] = test: Neurotoxicity in albino Sprague-Dawley rat assessed as minimal motor impairment at 30 mg/kg, ip after 0.5 hrs by rotorod test; assay type: toxicity, organism-based; design: dose 30 mg/kg, route intraperitoneal; settings: in vivo
# Mus musculus [7] = test: Anticonvulsant activity in ip dosed albino mouse assessed as time of peak effect for protection against 6 Hz psychomotor seizure by minimal clonic seizure test; assay type: functional
# Rattus norvegicus [8] = test: Toxicity in albino Sprague-Dawley rat pilocarpine-induced status prevention model assessed as weight change in protected animal at 200 mg/kg, ip administered 30 mins before pilocarpine challenge; assay type: organism-based; design: dose 200 mg/kg, route intraperitoneal; settings: in vivo, 0.5 h
# Rattus norvegicus [9] = test: Neurotoxicity in albino Sprague-Dawley rat assessed as minimal motor impairment at 30 mg/kg, ip after 2 hrs by rotorod test; assay type: toxicity, organism-based; design: dose 30 mg/kg, route intraperitoneal; settings: in vivo
# Rattus norvegicus [10] = test: Anticonvulsant activity in po dosed albino Sprague-Dawley rat assessed as protection against maximal electroshock-induced seizures after […] to 4 hrs; assay type: functional, organism-based
# Rattus norvegicus [11] = test: Toxicity in albino Sprague-Dawley rat pilocarpine-induced status prevention model assessed as weight change in protected animal at 200 mg/kg, ip followed by immediately administered pilocarpine; assay type: organism-based; design: dose 200 mg/kg, route intraperitoneal; settings: in vivo
# Mus musculus [12] = test: Anticonvulsant activity in albino mouse assessed as protection against 6 Hz psychomotor seizure at 100 mg/kg, ip after 0.5 hrs by minimal clonic seizure test; assay type: functional, organism-based; design: dose 100 mg/kg
# Rattus norvegicus [13] = test: Neurotoxicity in albino Sprague-Dawley rat assessed as minimal motor impairment at 30 mg/kg, ip after 1 hr by rotorod test; assay type: toxicity, organism-based; design: dose 30 mg/kg, route intraperitoneal; settings: in vivo
# Rattus norvegicus [14] = test: Anticonvulsant activity in albino Sprague-Dawley rat pilocarpine-induced status prevention model by measuring post-first stage 3 seizure at 200 mg/kg, ip followed by immediately administered pilocarpine; assay type: functional, organism-based; design: dose 200 mg/kg
# Mus musculus [15] = test: Anticonvulsant activity in albino mouse assessed as protection against 6 Hz psychomotor seizure at 100 mg/kg, ip after 2 hrs by minimal clonic seizure test; assay type: functional, organism-based; design: dose 100 mg/kg
# Mus musculus [16] = test: Anticonvulsant activity in albino mouse assessed as protection against subcutaneous metrazole-induced seizures at 100 mg/kg, ip after 0.5 hrs; assay type: functional, organism-based; design: dose 100 mg/kg
# Mus musculus [17] = test: Anticonvulsant activity in albino mouse assessed as protection against maximal electroshock-induced seizures at 100 mg/kg, ip after 1 hr; assay type: functional, organism-based; design: dose 100 mg/kg
# [18] = Neurotoxicity in ip dosed albino mouse minimal clonic seizure model assessed as minimal motor impairment by rotorod test; assay type: toxicity, organism-based; settings: in vivo
# Mus musculus [19] = test: Anticonvulsant activity in albino mouse assessed as protection against 6 Hz psychomotor seizure at 100 mg/kg, ip after 1 hr by minimal clonic seizure test; assay type: functional, organism-based; design: dose 100 mg/kg
# Mus musculus [20] = test: Neurotoxicity in albino mouse assessed as minimal motor impairment at 100 mg/kg, ip after 4 hrs by rotorod test; assay type: toxicity, organism-based; design: dose 100 mg/kg, route intraperitoneal; settings: in vivo
# Rattus norvegicus [21] = test: Neurotoxicity in albino Sprague-Dawley rat assessed as minimal motor impairment at 30 mg/kg, ip after 0.25 hrs by rotorod test; assay type: toxicity, organism-based; design: dose 30 mg/kg, route intraperitoneal; settings: in vivo
# Rattus norvegicus [22] = test: Toxicity in albino Sprague-Dawley rat pilocarpine-induced status prevention model assessed as weight change in non-protected animal at 200 mg/kg, ip administered 30 mins before pilocarpine challenge; assay type: organism-based; design: dose 200 mg/kg, route intraperitoneal; settings: in vivo, 0.5 h
# Rattus norvegicus [23] = test: Toxicity in albino Sprague-Dawley rat pilocarpine-induced status prevention model assessed as weight change in non-protected animal at 200 mg/kg, ip followed by immediately administered pilocarpine; assay type: organism-based; design: dose 200 mg/kg, route intraperitoneal; settings: in vivo
# Mus musculus [24] = test: Neurotoxicity in albino mouse assessed as minimal motor impairment at 100 mg/kg, ip after 1 hr by rotorod test; assay type: toxicity, organism-based; design: dose 100 mg/kg, route intraperitoneal; settings: in vivo
# Mus musculus [25] = test: Anticonvulsant activity in albino mouse assessed as protection against 6 Hz psychomotor seizure at 100 mg/kg, ip after 4 hrs by minimal clonic seizure test; assay type: functional, organism-based; design: dose 100 mg/kg
# Rattus norvegicus [26] = test: Anticonvulsant activity in albino Sprague-Dawley rat assessed as protection against maximal electroshock-induced seizures at 30 mg/kg, ip after 1 hr; assay type: functional, organism-based; design: dose 30 mg/kg
# Mus musculus [27] = test: Anticonvulsant activity in ip dosed albino mouse assessed as protection against 6 Hz psychomotor seizure by minimal clonic seizure test; assay type: functional
# Rattus norvegicus [28] = test: Anticonvulsant activity in albino Sprague-Dawley rat assessed as protection against maximal electroshock-induced seizures at 30 mg/kg, ip after 0.5 hrs; assay type: functional, organism-based; design: dose 30 mg/kg
# Rattus norvegicus [29] = test: Anticonvulsant activity in albino Sprague-Dawley rat assessed as protection against maximal electroshock-induced seizures at 30 mg/kg, ip after 4 hrs; assay type: functional, organism-based; design: dose 30 mg/kg
# Mus musculus [30] = test: Neurotoxicity in albino mouse assessed as minimal motor impairment at 100 mg/kg, ip after 0.25 hrs by rotorod test; assay type: toxicity, organism-based; design: dose 100 mg/kg, route intraperitoneal; settings: in vivo
# Mus musculus [31] = test: Anticonvulsant activity in albino mouse assessed as protection against 6 Hz psychomotor seizure at 100 mg/kg, ip after 0.25 hrs by minimal clonic seizure test; assay type: functional, organism-based; design: dose 100 mg/kg
# Mus musculus [32] = organism: Mus musculus; test: Protective index, ratio of TD50 for albino mouse minimal clonic seizure model to ED50 for albino mouse assessed as protection against 6 Hz psychomotor seizure; assay type: functional
# Rattus norvegicus [33] = test: Anticonvulsant activity in albino Sprague-Dawley rat pilocarpine-induced status prevention model by measuring post-first stage 3 seizure at 200 mg/kg, ip administered 30 mins before pilocarpine challenge; assay type: functional, organism-based; design: dose 200 mg/kg
# Mus musculus [34] = test: Anticonvulsant activity in albino mouse assessed as protection against maximal electroshock-induced seizures at 100 mg/kg, ip after 0.25 hrs; assay type: functional, organism-based; design: dose 100 mg/kg
# Mus musculus [35] = test: Anticonvulsant activity in albino mouse assessed as protection against maximal electroshock-induced seizures at 100 mg/kg, ip after 0.5 hrs; assay type: functional, organism-based; design: dose 100 mg/kg
# Rattus norvegicus [36] = test: Neurotoxicity in albino Sprague-Dawley rat assessed as minimal motor impairment at 30 mg/kg, ip after 4 hrs by rotorod test; assay type: toxicity, organism-based; design: dose 30 mg/kg, route intraperitoneal; settings: in vivo
# Mus musculus [37] = test: Neurotoxicity in albino mouse minimal clonic seizure model assessed as minimal motor impairment at 100 mg/kg, ip after 0.25 hrs by rotorod test; assay type: toxicity, organism-based; design: dose 100 mg/kg, route intraperitoneal; settings: in vivo
# Mus musculus [38] = test: Neurotoxicity in albino mouse assessed as loss of righting reflex at 100 mg/kg, ip after 0.25 hrs by rotorod test; assay type: toxicity, organism-based; design: dose 100 mg/kg, route intraperitoneal; settings: in vivo
# Mus musculus [39] = test: Toxicity in subcutaneous metrazole treated albino mouse assessed as myoclonic jerks at 100 mg/kg, ip after 0.25 hrs; assay type: organism-based; design: dose 100 mg/kg; settings: in vivo, sc
# Mus musculus [40] = test: Neurotoxicity in albino mouse minimal clonic seizure model assessed as minimal motor impairment at 100 mg/kg, ip after 1 hr by rotorod test; assay type: toxicity, organism-based; design: dose 100 mg/kg, route intraperitoneal; settings: in vivo
# Mus musculus [41] = test: Neurotoxicity in albino mouse minimal clonic seizure model assessed as minimal motor impairment at 100 mg/kg, ip after 2 hrs by rotorod test; assay type: toxicity, organism-based; design: dose 100 mg/kg, route intraperitoneal; settings: in vivo
# Mus musculus [42] = test: Neurotoxicity in albino mouse minimal clonic seizure model assessed as minimal motor impairment at 100 mg/kg, ip after 0.5 hrs by rotorod test; assay type: toxicity, organism-based; design: dose 100 mg/kg, route intraperitoneal; settings: in vivo
# Mus musculus [43] = test: Neurotoxicity in albino mouse minimal clonic seizure model assessed as minimal motor impairment at 100 mg/kg, ip after 4 hrs by rotorod test; assay type: toxicity, organism-based; design: dose 100 mg/kg, route intraperitoneal; settings: in vivo
# Mus musculus [44] = test: Anticonvulsant activity in albino mouse assessed as protection against subcutaneous metrazole-induced seizures at 100 mg/kg, ip after 1 hr; assay type: functional, organism-based; design: dose 100 mg/kg
# Mus musculus [45] = test: Anticonvulsant activity in albino mouse assessed as protection against subcutaneous metrazole-induced seizures at 100 mg/kg, ip after 0.25 hrs; assay type: functional, organism-based; design: dose 100 mg/kg
Structure (SMILES),Activity (Mus musculus [1]),Activity (Rattus norvegicus [2]),Activity (Mus musculus [3]),Activity (Rattus norvegicus [4]),Activity (Mus musculus [5]),Activity (Rattus norvegicus [6]),Activity (Rattus norvegicus [9]),Activity (Rattus norvegicus [10]),Activity (Mus musculus [12]),Activity (Rattus norvegicus [13]),Activity (Mus musculus [15]),Activity (Mus musculus [16]),Activity (Mus musculus [17]),Activity (Mus musculus [19]),Activity (Mus musculus [20]),Activity (Mus musculus [24]),Activity (Mus musculus [25]),Activity (Mus musculus [31]),Activity (Mus musculus [34]),Activity (Mus musculus [35]),further results
O=C1NC(=O)[C@@H]2CCCN2[C@H]1c1ccc(Cl)cc1,inactive,Active,inactive,inactive,Non-toxic,Non-toxic,Non-toxic,inactive,Active,Non-toxic,Active,inactive,inactive,Active,Non-toxic,Non-toxic,inactive,Active,Active,inactive,Time (Mus musculus [7]): 0.25 h; Activity (Rattus norvegicus [8]): -30 g; Activity (Rattus norvegicus [11]): -3.6 g; Activity (Rattus norvegicus [14]): Active; TD50 [18]: 212 mg/kg; Activity (Rattus norvegicus [21]): Non-toxic; Activity (Rattus norvegicus [22]): -31.4 g; Activity (Rattus norvegicus [23]): 15 g; Activity (Rattus norvegicus [26]): inactive; ED50 (Mus musculus [27]): 32.2 mg/kg; Activity (Rattus norvegicus [28]): Active; Activity (Rattus norvegicus [29]): inactive; Activity (Mus musculus [30]): Non-toxic; Ratio TD50/ED50 (Mus musculus [32]): 6.6; Activity (Rattus norvegicus [33]): inactive; Activity (Rattus norvegicus [36]): Non-toxic
Cc1ccccc1[C@H]1C(=O)NC(=O)[C@@H]2CCCN12,inactive,,inactive,,Non-toxic,,,inactive,Active,,inactive,inactive,inactive,Active,Non-toxic,Non-toxic,inactive,Active,inactive,inactive,Activity (Mus musculus [37]): Non-toxic; Activity (Mus musculus [38]): Toxic; Activity (Mus musculus [39]): Toxic; Activity (Mus musculus [40]): Non-toxic; Activity (Mus musculus [41]): Non-toxic; Activity (Mus musculus [42]): Non-toxic; Activity (Mus musculus [43]): Non-toxic; Activity (Mus musculus [44]): inactive
Cc1cccc([C@H]2C(=O)NC(=O)[C@@H]3CCCN23)c1,inactive,inactive,inactive,inactive,Non-toxic,Non-toxic,Non-toxic,inactive,Active,Non-toxic,inactive,inactive,inactive,inactive,Non-toxic,Non-toxic,inactive,Active,Active,Active,Activity (Mus musculus [37]): Toxic; Activity (Rattus norvegicus [21]): Non-toxic; Activity (Mus musculus [40]): Non-toxic; Activity (Rattus norvegicus [26]): inactive; Activity (Mus musculus [41]): Non-toxic; Activity (Mus musculus [45]): Active; Activity (Mus musculus [42]): Non-toxic; Activity (Mus musculus [43]): Non-toxic; Activity (Rattus norvegicus [28]): inactive; Activity (Rattus norvegicus [29]): inactive; Activity (Mus musculus [30]): Toxic; Activity (Mus musculus [44]): inactive; Activity (Rattus norvegicus [36]): Non-toxic
